IC50 data for eight molecules are collected here from patent US10479780B2, “Aminopyrazole derivatives” (Chugai Seiyaku Kabushiki Kaisha, priority 2015, dated 2019).

Where two headings read alike, the source gives them in different places.

What all share (type): biochemical
The target in one test is T1, human Yes1 enzyme (Homo sapiens, UniProt P07947).
T1 construct: made in house
The test can be described thus: Yes1 enzyme inhibitory activity (time-resolved fluorometry, biotinylated peptide phosphorylation). The conditions noted are these: read-out: YES_IC50. The gist of the method: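 Inhibition was expressed against a compound-free control to give IC50, using TR-FRET read-out (Eu-cryptate anti-pTyr antibody, streptavidin-XL665).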

Another test addresses T2, human Src enzyme (Homo sapiens, UniProt P12931).
T2 construct: purchased Carna Biosciences, Inc. 08-173
The test can be described thus: Src enzyme inhibitory activity (time-resolved fluorometry, biotinylated peptide phosphorylation). The conditions noted are these: read-out: SRC_IC50. The gist of the method: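 Compounds were tested for blocking tyrosine phosphorylation of a biotinylated peptide substrate by recombinant human Src. Phosphorylated product was quantified by time-resolved fluorometry using europium cryptate and XL665 conjugates, and IC50 was calculated against the compound-free control.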

The target in the next test is T3, human Lck enzyme (Homo sapiens, UniProt P06239).
T3 construct: purchased Carna Biosciences, Inc. 08-170
The test can be described thus: Lck enzyme inhibitory activity (time-resolved fluorometry, biotinylated peptide phosphorylation). The conditions noted are these: read-out: LCK_IC50. The procedure, abridged: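 Readout pairs a europium cryptate-labelled anti-phosphotyrosine antibody with XL665-streptavidin, measured by time-resolved fluorescence. IC50 derived from percent inhibition against untreated controls.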

Setting [1] is: biotinylated peptide phosphorylation.

T2 sequence (P12931 whole entry): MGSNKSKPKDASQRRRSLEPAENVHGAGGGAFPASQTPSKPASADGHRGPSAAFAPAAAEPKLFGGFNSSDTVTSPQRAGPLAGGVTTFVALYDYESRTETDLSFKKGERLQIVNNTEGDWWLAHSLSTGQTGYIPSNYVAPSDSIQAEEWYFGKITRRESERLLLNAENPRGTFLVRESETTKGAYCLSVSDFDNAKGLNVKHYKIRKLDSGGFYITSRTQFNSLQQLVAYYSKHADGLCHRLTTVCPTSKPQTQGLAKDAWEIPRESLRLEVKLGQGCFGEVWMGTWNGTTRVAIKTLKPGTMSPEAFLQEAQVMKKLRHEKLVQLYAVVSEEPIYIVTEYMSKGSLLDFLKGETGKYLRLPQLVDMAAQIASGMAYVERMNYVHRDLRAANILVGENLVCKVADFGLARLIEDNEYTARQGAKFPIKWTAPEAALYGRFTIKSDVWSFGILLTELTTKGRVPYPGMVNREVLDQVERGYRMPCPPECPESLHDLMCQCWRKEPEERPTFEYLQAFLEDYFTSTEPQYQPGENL
T1 sequence (P07947 whole entry): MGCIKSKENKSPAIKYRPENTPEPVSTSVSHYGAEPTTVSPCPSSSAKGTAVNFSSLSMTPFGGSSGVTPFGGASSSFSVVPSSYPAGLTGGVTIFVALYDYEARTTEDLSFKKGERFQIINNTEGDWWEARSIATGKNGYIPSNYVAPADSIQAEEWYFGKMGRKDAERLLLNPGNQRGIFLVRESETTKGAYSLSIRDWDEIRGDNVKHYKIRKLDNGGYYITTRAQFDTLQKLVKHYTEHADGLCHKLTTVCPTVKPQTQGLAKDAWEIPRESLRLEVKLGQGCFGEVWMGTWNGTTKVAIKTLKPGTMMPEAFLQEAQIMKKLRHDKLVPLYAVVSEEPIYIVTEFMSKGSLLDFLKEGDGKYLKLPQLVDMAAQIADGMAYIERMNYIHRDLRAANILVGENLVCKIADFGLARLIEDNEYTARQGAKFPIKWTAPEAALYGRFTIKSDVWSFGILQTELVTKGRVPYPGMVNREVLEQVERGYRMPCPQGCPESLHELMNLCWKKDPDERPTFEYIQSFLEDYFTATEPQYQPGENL
T3 sequence (P06239 whole entry): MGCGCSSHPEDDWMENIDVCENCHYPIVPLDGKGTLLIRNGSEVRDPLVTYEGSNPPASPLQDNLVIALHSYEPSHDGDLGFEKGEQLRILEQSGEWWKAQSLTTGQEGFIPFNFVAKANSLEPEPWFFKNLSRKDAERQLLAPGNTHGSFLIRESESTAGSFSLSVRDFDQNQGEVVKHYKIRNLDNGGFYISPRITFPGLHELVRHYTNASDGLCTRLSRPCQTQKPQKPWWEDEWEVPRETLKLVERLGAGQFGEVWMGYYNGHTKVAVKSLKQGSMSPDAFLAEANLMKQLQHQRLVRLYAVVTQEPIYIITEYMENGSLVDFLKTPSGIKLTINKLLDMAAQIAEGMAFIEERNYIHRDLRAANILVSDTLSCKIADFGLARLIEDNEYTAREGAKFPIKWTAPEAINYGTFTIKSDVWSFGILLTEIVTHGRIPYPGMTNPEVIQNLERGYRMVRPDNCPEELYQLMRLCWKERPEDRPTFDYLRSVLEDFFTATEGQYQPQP

Regarding `CS(=O)(=O)Nc1cc2[nH]c(C(=O)c3cnn(-c4ccc(Oc5cccc(F)c5F)cc4Cl)c3N)cc2cc1F` [Example 5-1-016, N-[2-[5-amino-1-[2-chloro-4-(2,3-difluorophenoxy)phenyl]pyrazole-4-carbonyl]-5-fluoro-1H-indol-6-yl]methanesulfonamide], the IC50 at human Yes1 enzyme is 0.72 nM; at human Src enzyme it was 93 nM; on human Lck enzyme, 25 nM.

As to `Cc1cc(Oc2cccc(Cl)c2)cc(F)c1-n1ncc(C(=O)c2cc3cc(Cl)c(NS(C)(=O)=O)cc3[nH]2)c1N` [Example 4-2-083, N-[2-[5-amino-1-[4-(3-chlorophenoxy)-2-fluoro-6-methylphenyl]pyrazole-4-carbonyl]-5-chloro-1H-indol-6-yl]methanesulfonamide], the IC50 was found to be 27 nM on human Yes1 enzyme (setting [1]), 520 nM on human Src enzyme (setting [1]) and 250 nM on human Lck enzyme (setting [1]).

Regarding `Cc1cc(Oc2ccccc2F)ccc1-n1ncc(C(=O)c2cc3cc(OC(F)F)c(C4CCN(S(=O)(=O)C5CC5)CC4)cc3[nH]2)c1N` [Example 4-17-004, [5-amino-1-[4-(2-fluorophenoxy)-2-methylphenyl]pyrazol-4-yl]-[6-(1-cyclopropylsulfonylpiperidin-4-yl)-5-(difluoromethoxy)-1H-indol-2-yl]methanone], the IC50 on human Yes1 enzyme (setting [1]) is 9.6 nM; at human Src enzyme (setting [1]), 22 nM; at human Lck enzyme (setting [1]), 17 nM.

On to `Cc1cc2cc(C(=O)c3cnn(-c4cnc(Oc5ccccc5F)cc4C)c3N)[nH]c2cc1C1CCN(S(C)(=O)=O)CC1` [Example 5-1-090, [5-amino-1-[6-(2-fluorophenoxy)-4-methylpyridin-3-yl]pyrazol-4-yl]-[5-methyl-6-(1-methylsulfonylpiperidin-4-yl)-1H-indol-2-yl] methanone], for which the values for the IC50 at human Yes1 enzyme, on human Src enzyme and at human Lck enzyme were 2.6 nM, 25 nM and 3.8 nM, respectively.

As for `Cc1cnc(F)c(S(=O)(=O)Nc2cc3[nH]c(C(=O)c4cnn(-c5cnc(Oc6ccccc6F)cc5C)c4N)cc3cc2F)c1` [Example 5-1-524, N-[2-[5-amino-1-[6-(2-fluorophenoxy)-4-methylpyridin-3-yl]pyrazole-4-carbonyl]-5-fluoro-1H-indol-6-yl]-2-fluoro-5-methylpyridine-3-sulfonamide], the figures for the IC50 on human Yes1 enzyme (setting [1]), on human Src enzyme (setting [1]) and at human Lck enzyme (setting [1]) were 5.7 nM, 580 nM and 210 nM, respectively.

For `Cc1cc(Oc2c(F)cccc2F)ncc1-n1ncc(C(=O)c2cc3cc(OC4CCN(C5CCCC5)CC4)c(-c4ccccc4Cl)cc3[nH]2)c1N` [Example 5-1-288, [5-amino-1-[6-(2,6-difluorophenoxy)-4-methylpyridin-3-yl]pyrazol-4-yl]-[6-(2-chlorophenyl)-5-(1-cyclopentylpiperidin-4-yl)oxy-1H-indol-2-yl]methanone], the results for the IC50 on human Yes1 enzyme, at human Src enzyme and at human Lck enzyme were 1.9 nM, 52 nM and 17 nM, respectively.

On to `Cc1cc(Oc2ccccc2F)ccc1-n1ncc(C(=O)c2cc3cc(OC4CCN(C(C)C)CC4)c(N4CCN(S(C)(=O)=O)CC4)cc3[nH]2)c1N` [Example 5-1-191, [5-amino-1-[4-(2-fluorophenoxy)-2-methylphenyl]pyrazol-4-yl]-[6-(4-methylsulfonylpiperazin-1-yl)-5-(1-propan-2-ylpiperidin-4-yl)oxy-1H-indol-2-yl]methanone], for which the results for the IC50 on human Yes1 enzyme, on human Src enzyme and on human Lck enzyme were 0.48 nM, 2.2 nM and 1.6 nM, respectively.

Turning to `COc1cccc(S(=O)(=O)Nc2cc3[nH]c(C(=O)c4cnn(-c5ccc(Oc6ccccc6F)cc5C)c4N)cc3cc2OCC(F)F)c1` [Example 5-1-414, N-[2-[5-amino-1-[4-(2-fluorophenoxy)-2-methylphenyl]pyrazole-4-carbonyl]-5-(2,2-difluoroethoxy)-1H-indol-6-yl]-3-methoxybenzenesulfonamide], the IC50 was 5.3 nM at human Yes1 enzyme (setting [1]), 330 nM at human Src enzyme (setting [1]) and 110 nM on human Lck enzyme (setting [1]).
